The results in this text go back to patent publication US6444809B1, “Therapeutic heterocycles” (Zeneca Limited, priority 1993, dated 2002).

One experiment deals with guinea pig trachea. Put plainly: Guinea pig assay (Test B), antagonism of agonist (NKA or [β-Ala8]-NKA(4-10)) contraction of tracheal rings. It is filed as cell-based. On the procedure: Guinea Pig Assay (Test B)
In the test described below either NKA or [β-Ala^8]-NKA(4-10) is used as an agonist. The chosen agonist is refered to as AG throughout the description.
Male guinea pigs are killed by a sharp blow to the back of the head. The trachea are removed, trimmed of excess tissue and divided into two segments. […] Initial tension placed on each tissue is 1 g, which is maintained throughout a 0.5 to 1.5 hour equilibration period before addition of other drugs. Contractile responses are measured on a Grass polygraph via Grass FT-03 force transducers.
Tissues are challenged repetitively with a single concentration of AG (10 nM) with intervening 30 min periods with washing to allow the tension to return to baseline levels. […] Percent inhibition is determined when a Compound produces a statistically significant (p<0.05) reduction of the contraction and is calculated using the second contractile response as 100%.
Potencies of selected Compounds are evaluated by calculating apparent dissociation constants (KB) for each concentration tested using the standard equation: […]
where dose ratio=antilog[(AG −log molar EC50 without Compound) −(AG−log molar EC50 with Compound)]. The KB values may be converted to the negative logarithms and expressed as −log molar KB (i.e. PKB). […] The EC50 values are converted to the negative logarithms and expressed as −log molar EC50. […]

The next experiment concerns the target T1, human NK2 receptor (Homo sapiens, UniProt P21452).
T1 construct: expressed in transfected cells
T1 sequence (P21452 1-398): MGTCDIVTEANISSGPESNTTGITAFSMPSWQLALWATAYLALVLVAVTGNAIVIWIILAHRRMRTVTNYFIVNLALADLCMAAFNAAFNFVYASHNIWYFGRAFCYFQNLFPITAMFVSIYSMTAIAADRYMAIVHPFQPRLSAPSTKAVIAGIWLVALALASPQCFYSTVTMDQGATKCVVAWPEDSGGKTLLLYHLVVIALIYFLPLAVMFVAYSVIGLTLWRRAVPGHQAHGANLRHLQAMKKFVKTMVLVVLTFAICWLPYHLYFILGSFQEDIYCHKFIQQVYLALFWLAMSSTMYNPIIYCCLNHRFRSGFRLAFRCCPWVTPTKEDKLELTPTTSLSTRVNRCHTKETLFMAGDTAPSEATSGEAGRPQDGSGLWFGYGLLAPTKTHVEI
Kind of experiment: Neurokinin A (NKA) receptor-binding assay (Test A), 3H-NKA binding to MEL cell membranes. From the text:
Neurokinin A (NKA) Receptor-binding Assay (Test A)
Heterologous protein expression in Mouse Erythroleukemia (MEL) cells uses the human globin locus control region (LCR) (F. Grosveld et al., Cell (1987) 51, 975-985). The cDNAs are inserted between the human beta-globin promoter and the second intron of the human beta-globin gene, and this expression cassette is then placed downstream of the LCR and transfected into MEL cells (M. Needham et al., Nucl. Acids Res. (1992) 20, 997-1003). Human NK2 receptor cDNA (A. Graham et al., Biochem. Biophys. Res. Commun. (1991) 177, 8-16) was isolated from human lung RNA by polymerase chain reaction and DNA sequenced. […] These were annealed and ligated to the hNK2R fragment by standard methods. Following cleavage with Hind III, the resulting fragment was cloned into the Hind III and Bam HI sites in the polylinker of the shuttle vector pMEG3. […] Directly after transfection, cells were diluted in culture medium to 10^4 and 10^5 cell per mL and 1 mL aliquots transferred to each well of a 24-well plate.
G418 was added to a concentration of 1 mg/mL 24 hours after the transfection to select for stable transfectants. […]
Nonspecific binding is routinely defined with 1 μM NKA. […] The filters are deposited in scintillation vials and read in a Beckman LS 6000LL Scintillation Counter.

Structures can show the parent of a compound that is named as a salt.

Take `CN(C[C@@H](CCN1CCC(N2CCCOC2=O)CC1)c1ccc(Cl)c(Cl)c1)C(=O)c1ccccc1` [Example 2, (S)-N-[2-(3,4-Dichlorophenyl)-4-(2-oxoperhydro-1,3-oxa-zin-3-yl)piperidino]butyl]-N-methylbenzamide hydrochloride]: the antagonist equilibrium constant (Kb) in the experiment on guinea pig trachea (Cavia porcellus, Test B, -log molar apparent dissociation constant KB) was 2 nM. The Ki at human NK2 receptor (Test A, typically found) was 4.1 nM.
As to `CN(CC(CCN1CCC(N2CCOC2=O)CC1)c1ccc(Cl)c(Cl)c1)C(=O)c1ccccc1.Cl` (stereo not shown) [Example 1, N-[2-(3,4-Dichlorophenyl)-4-[4-(2-oxo-1,3-oxazolidin-3-yl)piperidino]butyl]-N-methylbenzamide hydrochoride], the “NK2 antagonist activity in the functional assay (Test B)” value with guinea pig trachea (result in words) is on record as “potent NK2 antagonist”. On human NK2 receptor (result in words), the “NK2 antagonist activity in the in vitro screen (Test A)” value is on record as “potent NK2 antagonist”.
